Results: patent US20240069010A1, “TISSUE ORGANOID BIOPRINTING AND HIGH-THROUGHPUT SCREENING METHODOLOGY” (priority 2020, published 2024)
Where two headings read alike, the source gives them in different places.

Legend:
MCF-7 organoids = test: Endpoint ATP-release assay (CellTiter-Glo) of organoid viability; assay type: cell-based; conditions: for viability at 0.1 µM / viability at 1 µM / viability at 10 µM / viability at 50 µM: Homo sapiens
Method: (§1) All drug treatments of 3D organoids were performed in serum-free conditions in MammoCult™ medium supplemented with 1% antibiotic-antimycotic (Gibco 15240-062). A detailed protocol for the drug screening has been published previously in Phan, N. et al. supra; and Nguyen, H. T. L. & Soragni, supra. Briefly, the culture medium was fully removed three days after seeding and replaced with 100 μL of MammoCult™ medium containing the indicated treatments using an automated pipetting system (EpMotion® 96). After treatment, we transferred the organoids to the HSLCI for imaging. Organoids were imaged by HSLCI between 6 hours and 48 hours after treatment. After imaging, we performed an ATP assay to assess cell viability in accordance with the manufacturer's instructions. The media was aspirated from each well and replaced with 50 μL of 5 mg/mL Dispase (Thermo-Fisher) solution to digest the Matrigel. After a 25-minute incubation at 37° C., the plate was placed on an orbital shaker for 5 minutes at 80 RPM. We then added 30 μL of CellTiter-Glo® reagent (Promega), sealed the plate with film, covered the plate with foil to protect from light, shook the plate for 5 minutes at 80 RPM, and incubated at room temperature for an additional 20 minutes. We used a SpectraMax iD3 plate reader to measure luminescence. The program parameters for luminescence readings were 5 minutes of shaking prior to reading, reading all wavelengths, and integrating signal over 500 ms. Organoid viability within each well was calculated by dividing the luminescent signal from each well by the mean luminescence of the control (1% DMSO) wells. Two-tailed independent t-tests were performed to assess the statistical significance of the differences in organoid mass and cell viability. P-values less than 0.05 were deemed significant.

BT-474 organoids = test: as above; assay type: cell-based; conditions: for viability at 0.1 µM / viability at 1 µM / viability at 10 µM / viability at 50 µM: Homo sapiens
Method: as §1, with “Organoids were imaged by HSLCI between 6 hours and 48 hours after treatment. After imaging, we performed an ATP assay to assess cell viability in accordance with the manufacturer's instructions.” left out

[1] = MCF7, 6 h, read-out: Comparisons of cell viability measures by ATP detection assay, Mean mass ± SD
[2] = MCF7, 72 h, read-out: Organoid viability by endpoint ATP assay, Viability ± SD
[3] = BT-474, 48 h, read-out: Comparisons of cell viability measures by ATP detection assay, Mean mass ± SD
[4] = BT-474, 72 h, read-out: Organoid viability by endpoint ATP assay, Viability ± SD

With CS(=O)(=O)CCNCc1ccc(-c2ccc3ncnc(Nc4ccc(OCc5cccc(F)c5)c(Cl)c4)c3c2)o1 [Lapatinib, lapatinib] the viability at 0.1 µM (MCF-7 organoids; MCF7, MCF-7, 0.1 μM, 72 h of treatment, luminescence relative to 1% DMSO control, read-out: Organoid viability by endpoint ATP assay, Viability ± SD) was 100 ± 3%, the viability at 1 µM (MCF-7 organoids; MCF7, MCF-7, 1 μM, 72 h of treatment, luminescence relative to 1% DMSO control, read-out: Organoid viability by endpoint ATP assay, Viability ± SD) was 101 ± 4% and the viability at 10 µM (MCF-7 organoids; MCF7, MCF-7, 10 μM, 72 h of treatment, luminescence relative to 1% DMSO control, read-out: Organoid viability by endpoint ATP assay, Viability ± SD) was 66 ± 7%. The viability at 50 µM (MCF-7 organoids; MCF7, MCF-7, 72 h of treatment, luminescence relative to 1% DMSO control, read-out: Organoid viability by endpoint ATP assay, Viability ± SD) was 14 ± 3%, the viability at 0.1 µM (MCF-7 organoids; MCF7, listed as printed as 6 hours, 0.1 μM, relative to 1% DMSO, read-out: Comparisons of cell viability measures by ATP detection assay, Mean mass ± SD) was 100 ± 3% and the viability at 1 µM (MCF-7 organoids; MCF7, listed as printed as 6 hours, 1 μM, relative to 1% DMSO, read-out: Comparisons of cell viability measures by ATP detection assay, Mean mass ± SD) was 101 ± 4%. For the same compound, the viability at 10 µM (MCF-7 organoids; MCF7, listed as printed as 6 hours, 10 μM, relative to 1% DMSO, read-out: Comparisons of cell viability measures by ATP detection assay, Mean mass ± SD) was 66 ± 7%, the viability at 50 µM (MCF-7 organoids; MCF7, listed as printed as 6 hours, relative to 1% DMSO, read-out: Comparisons of cell viability measures by ATP detection assay, Mean mass ± SD) was 14 ± 3% and the “Organoid viability by endpoint ATP assay, Viability ± SD” value (from here on “Organoid viability … Viability ± SD”) (BT-474 organoids; BT-474, 0.1 μM, 72 h of treatment, luminescence relative to 1% DMSO control) was “significant reductions in viability”. The viability at 0.1 µM (BT-474 organoids; BT-474, listed as printed as 48 hours, 0.1 μM, relative to 1% DMSO, read-out: Comparisons of cell viability measures by ATP detection assay, Mean mass ± SD) was 70 ± 18%, the viability at 1 µM (BT-474 organoids; BT-474, listed as printed as 48 hours, 1 μM, relative to 1% DMSO, read-out: Comparisons of cell viability measures by ATP detection assay, Mean mass ± SD) was 43 ± 9% and the viability at 10 µM (BT-474 organoids; BT-474, listed as printed as 48 hours, 10 μM, relative to 1% DMSO, read-out: Comparisons of cell viability measures by ATP detection assay, Mean mass ± SD) was 32 ± 4%. It also gave a viability at 50 µM (BT-474 organoids; BT-474, listed as printed as 48 hours, relative to 1% DMSO, read-out: Comparisons of cell viability measures by ATP detection assay, Mean mass ± SD) of 9 ± 7%, a viability at 0.1 µM (BT-474 organoids; BT-474, 0.1 μM, 72 h of treatment, luminescence relative to 1% DMSO control, read-out: Organoid viability by endpoint ATP assay, Viability ± SD) of 70 ± 18% and a viability at 1 µM (BT-474 organoids; BT-474, 1 μM, 72 h of treatment, luminescence relative to 1% DMSO control, read-out: Organoid viability by endpoint ATP assay, Viability ± SD) of 43 ± 9%. It also gave a viability at 10 µM (BT-474 organoids; BT-474, 10 μM, 72 h of treatment, luminescence relative to 1% DMSO control, read-out: Organoid viability by endpoint ATP assay, Viability ± SD) of 32 ± 4% and a viability at 50 µM (BT-474 organoids; BT-474, 72 h of treatment, luminescence relative to 1% DMSO control, read-out: Organoid viability by endpoint ATP assay, Viability ± SD) of 9 ± 7%.
CN[C@@H]1C[C@H]2O[C@@](C)([C@@H]1OC)n1c3ccccc3c3c4c(c5c6ccccc6n2c5c31)C(=O)NC4 [Staurosporine, staurosporine] gave a viability at 0.1 µM (MCF-7 organoids; [1]) of 50 ± 8%, a viability at 1 µM (MCF-7 organoids; [1]) of 17 ± 4% and a viability at 10 µM (MCF-7 organoids; [1]) of 13 ± 3%. The viability at 0.1 µM (MCF-7 organoids; [2]) was 50 ± 8%, the viability at 1 µM (MCF-7 organoids; [2]) was 17 ± 4% and the viability at 10 µM (MCF-7 organoids; [2]) was 13 ± 3%. For the same compound, the “Organoid viability … Viability ± SD” value (MCF-7 organoids; MCF-7, 1 μM, 72 h of treatment, luminescence relative to 1% DMSO control) was “near-zero viability”, the “Organoid viability … Viability ± SD” value (MCF-7 organoids; MCF-7, 10 μM, 72 h of treatment, luminescence relative to 1% DMSO control) was “near-zero viability” and the “Organoid viability … Viability ± SD” value (BT-474 organoids; BT-474, 1 μM, 72 h of treatment, luminescence relative to 1% DMSO control) was “near-zero viability”. The “Organoid viability … Viability ± SD” value (BT-474 organoids; BT-474, 10 μM, 72 h of treatment, luminescence relative to 1% DMSO control) was “near-zero viability”, the viability at 0.1 µM (BT-474 organoids; [3]) was 58 ± 14% and the viability at 1 µM (BT-474 organoids; [3]) was 2 ± 1%. For the same compound, the viability at 10 µM (BT-474 organoids; [3]) was 1%, the viability at 0.1 µM (BT-474 organoids; [4]) was 58 ± 14% and the viability at 1 µM (BT-474 organoids; [4]) was 2 ± 1%. It also gave a viability at 10 µM (BT-474 organoids; [4]) of 1%.
